Key:
Format in all cases: biochemical
[1] = target: T1, Ribonuclease A (RNAase A, pancreatic ribonuclease) (Bos taurus, UniProt P61823); assay: Residual RNAase activity test of plasmids purified with or without iodine (wheat germ rRNA degradation); conditions: 50 mM iodine during potassium acetate precipitation, RNAase A 10 micrograms/mL in cell resuspension buffer, 37° C., 30 min
T1 sequence (P61823 27-150): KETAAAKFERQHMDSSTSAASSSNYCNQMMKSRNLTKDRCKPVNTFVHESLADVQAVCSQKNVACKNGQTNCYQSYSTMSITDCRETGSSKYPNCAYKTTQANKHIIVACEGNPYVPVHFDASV
Method: Plasmids were purified by two methods both using RNAase A at 10 micrograms/mL in the cell resuspension buffer. In the right hand sample 50 mM iodine was included during potassium acetate precipitation of unwanted cellular components. In the center lane iodine was not included in the potassium acetate buffer. These purified plasmid preparations, "plasmid+I2 " and "plasmid-I2 ", respectively were incubated with wheat germ RNA in a sensitive assay designed to test for the presence residual RNAase activity. Wheat germ rRNA (0.5 micrograms in 5 microlitres of resuspension buffer: Soln A) was incubated at 37° C. for 30 min either alone or with 2 microlitres of purified plasmid dissolved in Soln A. The resulting samples were electrophoresed in the presence of SYBR green II to detect the nucleic acids. The 28s and 18s components of wheat germ rRNA were not degraded when incubated with buffer alone (left channel) or with plasmids purified by the method employing RNAase A and iodine (right channel). The rRNA was degraded when incubated with plasmids purified with RNAase and without iodine (center channel).

DNaseI (Promega) = target: T2, DNaseI (Promega) (Bos taurus, UniProt P00639); assay: Residual nuclease activity test after iodine miniprep (Mg/Ca incubation, supercoiled to nicked plasmid); conditions: 5 Units DNaseI added to cells, 5 mM MgCl2, CaCl2, 90 minutes at 37° C.
T2 construct: purchased Promega
T2 sequence (P00639 23-282): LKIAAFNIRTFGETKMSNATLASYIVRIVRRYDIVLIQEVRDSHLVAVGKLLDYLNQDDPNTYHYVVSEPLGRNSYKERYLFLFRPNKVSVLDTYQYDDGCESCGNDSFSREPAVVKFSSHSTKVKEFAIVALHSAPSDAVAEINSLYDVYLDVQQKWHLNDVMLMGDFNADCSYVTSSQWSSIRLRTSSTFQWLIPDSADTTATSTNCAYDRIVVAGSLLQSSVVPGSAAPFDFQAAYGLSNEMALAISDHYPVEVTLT
Method: (§1) Cells from 1 mL of terrific broth culture of pUC18 in NM522 (EndoI+) were resuspended in 0.2 mL of resuspension buffer (A). #1: No exogenous nuclease, #2:5 micrograms Micrococcal nuclease (MN) (300 units Boehringer Mannheim), #3:5 Units DNaseI (Promega), were added to the respective cell samples before processing for the preparation of the plasmid. After processing by the preferred embodiment Iodine miniprep procedure an aliquot of each sample was made 5 mM each in MgCl2, CaCl2 and 20 mM Tris.HCl pH 8.3. After 90 minutes at 37° C. these were electrophoresed (bottom group) together with aliquots that had not been exposed to Mg/Ca (top group) in a 1% agarose gel with SYBR green II fluorescent dye for detection of nucleic acids.

[2] = target: T3, Micrococcal nuclease (MN) (Boehringer Mannheim) (Staphylococcus aureus, UniProt P00644); assay: as above; conditions: 5 micrograms MN (300 units) added to cells, 5 mM MgCl2, CaCl2, 90 minutes at 37° C.
T3 construct: purchased Boehringer Mannheim
Method: as §1

[3] = target: T4, Endonuclease I (Endo I), endogenous, E. coli NM522 (EndoI+) (Escherichia coli, UniProt P25736); assay: as above; conditions: preferred embodiment, 5 mM MgCl2, CaCl2, 90 minutes at 37° C., no exogenous nuclease
T4 construct: due to either the endogenous Endo I or to residual activity of either of the added nucleases; endogenous in cells; host or cells: E. coli NM522 (EndoI+)
T4 sequence (P25736 23-235): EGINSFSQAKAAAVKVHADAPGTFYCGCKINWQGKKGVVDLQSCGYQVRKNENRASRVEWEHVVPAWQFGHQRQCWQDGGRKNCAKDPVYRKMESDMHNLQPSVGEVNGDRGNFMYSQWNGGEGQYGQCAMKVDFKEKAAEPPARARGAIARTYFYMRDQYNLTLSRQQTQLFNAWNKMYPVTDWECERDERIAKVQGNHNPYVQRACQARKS
Method: as §1

Compound: II [iodine]
- inactivation of RNase by iodine [1]: effective in inactivating RNAase
- inactivation of DNaseI by iodine (DNaseI (Promega)): lack of conversion of supercoiled plasmid (I) to nicked (II)
- inactivation of Micrococcal nuclease by iodine [2]: lack of conversion of supercoiled plasmid (I) to nicked (II)
- inactivation of Endo I by iodine [3]: lack of conversion of supercoiled plasmid (I) to nicked (II)
